Source: US11339130B1 (Blade Therapeutics, Inc., priority 2016, dated 2022)
Read-outs that look alike come from different tables or passages of the source.

How the values were obtained:
[1] = test system: Calpain activity in SH-SY5Y cells; experiment: SH-SY5Y + AMC fluorescence assay (Suc-LLVY-AMC substrate); type: cell-based
[2] = test system: Calpain activity in SH-SY5Y cells (SBDP-150); experiment: SH-SY5Y Spectrin western blot assay (SBDP-150 breakdown product, A23187-induced); type: cell-based; settings: read-out: SH-SY5Y Spectrin IC50
[3] = target: T1, Human Calpain 2/NS1 (Homo sapiens, UniProt P17655); experiment: Calpain inhibition continuous fluorescence (FRET) assay, Human Calpain 2/NS1; type: biochemical
T1 sequence (P17655 1-700): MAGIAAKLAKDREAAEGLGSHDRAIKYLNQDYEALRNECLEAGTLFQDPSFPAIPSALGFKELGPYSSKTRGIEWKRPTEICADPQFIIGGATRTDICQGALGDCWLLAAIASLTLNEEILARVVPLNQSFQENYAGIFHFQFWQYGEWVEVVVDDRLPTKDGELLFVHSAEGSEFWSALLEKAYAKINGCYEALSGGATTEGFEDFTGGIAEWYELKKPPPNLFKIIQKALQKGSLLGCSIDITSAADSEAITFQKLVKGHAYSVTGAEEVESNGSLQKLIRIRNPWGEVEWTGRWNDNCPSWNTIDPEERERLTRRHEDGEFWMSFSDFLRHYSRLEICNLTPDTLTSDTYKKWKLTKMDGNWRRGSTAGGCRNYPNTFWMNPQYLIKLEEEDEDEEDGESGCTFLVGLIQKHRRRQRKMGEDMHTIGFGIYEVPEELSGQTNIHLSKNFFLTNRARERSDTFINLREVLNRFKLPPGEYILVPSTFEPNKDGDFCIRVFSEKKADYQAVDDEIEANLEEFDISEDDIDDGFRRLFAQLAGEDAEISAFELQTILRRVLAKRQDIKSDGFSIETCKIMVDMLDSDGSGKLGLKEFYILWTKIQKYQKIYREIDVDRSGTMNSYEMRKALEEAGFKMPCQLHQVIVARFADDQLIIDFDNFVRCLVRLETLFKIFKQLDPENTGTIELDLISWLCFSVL
T1 sequence (P04632 1-268 partner): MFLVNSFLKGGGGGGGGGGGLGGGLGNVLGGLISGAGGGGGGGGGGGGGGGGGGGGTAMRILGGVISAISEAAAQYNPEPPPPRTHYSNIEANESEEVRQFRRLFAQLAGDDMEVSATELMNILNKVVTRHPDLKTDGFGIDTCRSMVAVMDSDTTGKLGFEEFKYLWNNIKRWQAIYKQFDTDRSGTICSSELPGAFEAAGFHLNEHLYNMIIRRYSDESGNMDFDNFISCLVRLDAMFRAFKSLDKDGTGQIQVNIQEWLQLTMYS
How it was run: (§1)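 Human calpains 1, 2 and 9 preincubated with inhibitor at 25 °C in 50 mM Tris pH 7.5, 100 mM NaCl, 1 mM DTT; reaction started with 5-FAM/QXL 520 FRET peptide plus CaCl2 for activation. Fluorescence (490/520 nm) followed 10 min; rates from 1-5 min slopes fitted to 4-parameter logistic for IC50.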

[4] = target: T2, Human Calpain 9/NS1 (Homo sapiens, UniProt O14815); experiment: Calpain inhibition continuous fluorescence (FRET) assay, Human Calpain 9/NS1; type: biochemical
T2 sequence (O14815 1-690): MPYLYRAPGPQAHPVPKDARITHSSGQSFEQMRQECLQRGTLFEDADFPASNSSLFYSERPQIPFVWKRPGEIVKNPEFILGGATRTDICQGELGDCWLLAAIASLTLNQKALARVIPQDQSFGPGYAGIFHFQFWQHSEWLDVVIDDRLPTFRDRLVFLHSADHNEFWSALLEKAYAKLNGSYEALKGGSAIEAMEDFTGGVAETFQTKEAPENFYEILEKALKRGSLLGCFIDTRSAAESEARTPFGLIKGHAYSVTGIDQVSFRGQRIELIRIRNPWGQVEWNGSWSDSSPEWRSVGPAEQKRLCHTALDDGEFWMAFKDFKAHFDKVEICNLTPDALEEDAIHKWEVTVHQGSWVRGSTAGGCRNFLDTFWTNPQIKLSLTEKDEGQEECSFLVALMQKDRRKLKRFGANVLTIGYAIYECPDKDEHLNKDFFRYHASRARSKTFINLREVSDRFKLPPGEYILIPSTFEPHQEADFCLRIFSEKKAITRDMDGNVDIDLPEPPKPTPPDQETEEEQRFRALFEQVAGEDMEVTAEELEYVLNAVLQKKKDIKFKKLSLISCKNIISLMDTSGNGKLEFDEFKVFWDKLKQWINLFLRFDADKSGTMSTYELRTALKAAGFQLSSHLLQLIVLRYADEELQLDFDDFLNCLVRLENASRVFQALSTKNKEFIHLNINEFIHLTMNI
T2 sequence (P04632 1-268 partner): T1 sequence (P04632 1-268 partner)
How it was run: as §1

[5] = target: T3, Human Calpain 1/NS1 (Homo sapiens, UniProt P07384); experiment: Calpain inhibition continuous fluorescence (FRET) assay, Human Calpain 1/NS1; type: biochemical
T3 sequence (P07384 1-714): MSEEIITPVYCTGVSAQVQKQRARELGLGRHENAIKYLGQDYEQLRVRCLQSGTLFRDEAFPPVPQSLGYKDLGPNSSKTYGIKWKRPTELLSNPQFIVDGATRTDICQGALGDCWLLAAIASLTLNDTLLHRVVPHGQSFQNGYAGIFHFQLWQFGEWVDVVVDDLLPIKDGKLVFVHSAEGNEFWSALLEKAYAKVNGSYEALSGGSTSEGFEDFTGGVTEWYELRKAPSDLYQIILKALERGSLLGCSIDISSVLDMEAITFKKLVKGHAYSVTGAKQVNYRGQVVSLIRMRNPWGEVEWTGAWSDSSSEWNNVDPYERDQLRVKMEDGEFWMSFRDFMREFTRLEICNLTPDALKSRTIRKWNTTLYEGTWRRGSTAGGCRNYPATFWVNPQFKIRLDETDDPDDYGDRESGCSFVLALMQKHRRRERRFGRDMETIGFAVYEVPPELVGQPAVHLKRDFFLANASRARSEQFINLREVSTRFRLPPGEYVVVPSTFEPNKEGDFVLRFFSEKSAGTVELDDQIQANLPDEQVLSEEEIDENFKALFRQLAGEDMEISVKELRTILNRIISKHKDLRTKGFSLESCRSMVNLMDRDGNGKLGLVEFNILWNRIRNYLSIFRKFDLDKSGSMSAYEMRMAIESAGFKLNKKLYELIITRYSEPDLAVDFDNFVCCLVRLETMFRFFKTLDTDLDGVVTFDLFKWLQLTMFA
T3 sequence (P04632 1-268 partner): T1 sequence (P04632 1-268 partner)
How it was run: as §1

[6] = Homo sapiens, SH-SY5Y cells, A23187-induced SBDP-150, western blot
[7] = read-out: Human Calpain 2/NS1 IC50
[8] = read-out: Human Calpain 9/NS1 IC50
[9] = read-out: Human Calpain 1/NS1 IC50
[10] = read-out: SH-SY5Y + AMC IC50, Column E
[11] = Column B, read-out: Human Calpain 2/NS1 IC50
[12] = Column C, read-out: Human Calpain 9/NS1 IC50
[13] = Column A, read-out: Human Calpain 1/NS1 IC50
[14] = Column E, read-out: SH-SY5Y + AMC IC50
[15] = Homo sapiens, Column D, SH-SY5Y cells, A23187-induced SBDP-150

CC(C)n1cc(C(=O)NC(Cc2ccccc2)C(=O)C(N)=O)c(-c2ccccc2F)n1 (stereo not shown) [Compound 472, N-(4-amino-3,4-dioxo-1-phenylbutan-2-yl)-3-(2-fluorophenyl)-1-isopropyl-1H-pyrazole-4-carboxamide]
IC50 ([1]; read-out: SH-SY5Y + AMC IC50): < 10 µM
IC50 [2, 6]: 10 to 25 µM
IC50 [3, 7]: < 3 µM
IC50 [4, 8]: < 3 µM
IC50 [5, 9]: < 3 µM

Cc1ccc(F)cc1-c1nn(C(F)F)cc1C(=O)NC(Cc1ccccc1)C(=O)C(N)=O (stereo not shown) [Compound 566, N-(4-amino-3,4-dioxo-1-phenylbutan-2-yl)-1-(difluoromethyl)-3-(5-fluoro-2-methylphenyl)-1H-pyrazole-4-carboxamide]
IC50 ([1]; read-out: SH-SY5Y + AMC IC50): < 10 µM
IC50 [2, 6]: 10 to 25 µM
IC50 [3, 7]: < 3 µM
IC50 [4, 8]: < 3 µM
IC50 [5, 9]: < 3 µM

CC(=O)NCc1ccc(-n2nc(C)cc2C(=O)N[C@@H](Cc2ccccc2)C(=O)C(N)=O)cc1 [Compound 157, (S)-1-(4-(acetamidomethyl)phenyl)-N-(4-amino-3,4-dioxo-1-phenylbutan-2-yl)-3-methyl-1H-pyrazole-5-carboxamide]
IC50 [1, 10]: > 25 µM
IC50 ([2]; Homo sapiens, SH-SY5Y): > 25 µM
IC50 [3, 11]: < 3 µM
IC50 [4, 12]: < 3 µM
IC50 [5, 13]: < 3 µM

Cc1cc(C(=O)N[C@@H](Cc2ccccc2)C(=O)C(N)=O)n(-c2cccc(-c3cccc(F)c3)c2)n1 [Compound 106, (S)—N-(4-amino-3,4-dioxo-1-phenylbutan-2-yl)-1-(3′-fluoro-[1,1′-biphenyl]-3-yl)-3-methyl-1H-pyrazole-5-carboxamide]
IC50 [1, 14]: > 25 µM
IC50 [2, 15]: < 10 µM
IC50 [3, 11]: < 3 µM
IC50 [4, 12]: < 3 µM
IC50 [5, 13]: < 3 µM

Cc1onc(-c2ccccc2)c1C(=O)N[C@@H](Cc1ccccc1)C(=O)C(N)=O [Compound 27, (S)—N-(4-amino-3,4-dioxo-1-phenylbutan-2-yl)-5-methyl-3-phenylisoxazole-4-carboxamide]
IC50 [1, 14]: > 25 µM
IC50 [2, 15]: 10 to 25 µM
IC50 [3, 11]: < 3 µM
IC50 [4, 12]: < 3 µM
IC50 [5, 13]: < 3 µM

Cn1cc(C(=O)N[C@@H](CC(C)(C)C)C(=O)C(N)=O)c(-c2ccccc2)n1 [Compound 416, (S)—N-(1-amino-5,5-dimethyl-1,2-dioxohexan-3-yl)-1-methyl-3-phenyl-1H-pyrazole-4-carboxamide]
IC50 ([1]; read-out: SH-SY5Y + AMC IC50): > 25 µM
IC50 [2, 6]: > 25 µM
IC50 [3, 7]: < 3 µM
IC50 [4, 8]: < 3 µM
IC50 [5, 9]: < 3 µM

NC(=O)C(=O)C(Cc1ccccc1)NC(=O)c1cn(C(F)F)nc1-c1cc(F)ccc1F (stereo not shown) [Compound 552, N-(4-amino-3,4-dioxo-1-phenylbutan-2-yl)-1-(difluoromethyl)-3-(2,5-difluorophenyl)-1H-pyrazole-4-carboxamide]
IC50 ([1]; read-out: SH-SY5Y + AMC IC50): < 10 µM
IC50 [2, 6]: < 10 µM
IC50 [3, 7]: < 3 µM
IC50 [4, 8]: < 3 µM
IC50 [5, 9]: < 3 µM

NC(=O)C(=O)C(Cc1ccccc1)NC(=O)c1c(Cl)cnn1-c1ncccn1 (stereo not shown) [Compound 347, N-(4-amino-3,4-dioxo-1-phenylbutan-2-yl)-4-chloro-1-(pyrimidin-2-yl)-1H-pyrazole-5-carb oxamide]
IC50 ([1]; read-out: SH-SY5Y + AMC IC50): > 25 µM
IC50 [2, 6]: 10 to 25 µM
IC50 [3, 7]: < 3 µM
IC50 [4, 8]: < 3 µM
IC50 [5, 9]: < 3 µM

NC(=O)C(=O)C(Cc1ccccc1)NC(=O)c1cn(C(F)F)nc1-c1cccc2ncccc12 (stereo not shown) [Compound 576, N-(4-amino-3,4-dioxo-1-phenylbutan-2-yl)-1-(difluoromethyl)-3-(quinolin-5-yl)-1H-pyrazole-4-carboxamide]
IC50 ([1]; read-out: SH-SY5Y + AMC IC50): < 10 µM
IC50 [2, 6]: < 10 µM
IC50 [3, 7]: < 3 µM
IC50 [4, 8]: < 3 µM
IC50 [5, 9]: < 3 µM

Cc1cc(C(=O)N[C@@H](Cc2ccccc2)C(=O)CF)n(-c2ccccn2)n1 [Compound 478, (S)—N-(4-fluoro-3-oxo-1-phenylbutan-2-yl)-3-methyl-1-(pyridin-2-yl)-1H-pyrazole-5-carboxamide]
IC50 ([1]; read-out: SH-SY5Y + AMC IC50): > 25 µM
IC50 [2, 6]: > 25 µM
IC50 [3, 7]: < 3 µM
IC50 [4, 8]: 3 to 10 µM
IC50 [5, 9]: < 3 µM

N-(4-amino-3,4-dioxo-1-phenylbutan-2-yl)-1-(2-cyanopyrimidin-4-yl)-3-methyl-1H-pyrazole-5-carboxamide [Compound 448]
IC50 ([1]; read-out: SH-SY5Y + AMC IC50): < 10 µM
IC50 ([2]; SH-SY5Y cells, A23187-induced SBDP-150, western blot): < 10 µM
IC50 [3, 7]: < 3 µM
IC50 [4, 8]: < 3 µM
IC50 [5, 9]: < 3 µM

Cc1cc(C(=O)N[C@@H](Cc2ccccc2)C(=O)C(N)=O)n(-c2ccc(CNC(=O)Oc3ccccc3)cc2)n1 [Compound 162, Phenyl (S)-(4-(5-((4-amino-3,4-dioxo-1-phenylbutan-2-yl)carbamoyl)-3-methyl-1H-pyrazol-1-yl)benzyl)carbamate]
IC50 [1, 10]: > 25 µM
IC50 ([2]; Homo sapiens, SH-SY5Y): > 25 µM
IC50 [3]: < 3 µM
IC50 [4]: < 3 µM
IC50 [5]: < 3 µM

NC(=O)C(=O)C(Cc1ccccc1)NC(=O)c1nsnc1-c1ccncc1 (stereo not shown) [Compound 371, N-(4-amino-3,4-dioxo-1-phenylbutan-2-yl)-4-(pyridin-4-yl)-1,2,5-thiadiazole-3-carboxamide]
IC50 ([1]; read-out: SH-SY5Y + AMC IC50): < 10 µM
IC50 [2, 6]: < 10 µM
IC50 [3, 7]: < 3 µM
IC50 [4, 8]: < 3 µM
IC50 [5, 9]: < 3 µM

NC(=O)C(=O)C(Cc1ccccc1)NC(=O)c1cnoc1-c1ccccc1 (stereo not shown) [Compound 531, N-(4-amino-3,4-dioxo-1-phenylbutan-2-yl)-5-phenylisoxazole-4-carboxamide]
IC50 ([1]; read-out: SH-SY5Y + AMC IC50): > 25 µM
IC50 [2, 6]: 10 to 25 µM
IC50 [3, 7]: < 3 µM
IC50 [4, 8]: < 3 µM
IC50 [5, 9]: < 3 µM
